Reference: paper PMC7559231, “Drug-induced cholestasis assay in primary hepatocytes” (MethodsX, 2020)
Where two headings read alike, the source gives them in different places.

Legend:
[1] = tested on: sandwich-cultured human hepatocytes; experiment: Drug-induced cholestasis (DIC) assay: urea formation in sandwich-cultured human hepatocytes with and without the bile salt mixture; details: lowest in vitro concentration with DICI < 0.78 / Cmax,total; for DICI-based SM obtained with the ‘original’ LOAEL method 24 h: 24 h incubation; for DICI-based SM obtained with the ‘original’ LOAEL method 48 h: 48 h incubation
From the text: Drug-induced cholestasis (DIC) is a major cause of attrition during drug development and post-marketing withdrawal. Early detection of DIC is crucial for avoiding financial losses and improving drug safety. Preclinical assays for DIC detection often rely on evaluation of the test compound towards individual cellular targets such as their inhibitory potential towards the bile salt export pump (BSEP) by using BSEP membrane vesicles. However, the underlying mechanisms of DIC development are more complex involving multiple other transporters and nuclear receptors. A more comprehensive in vitro model such as sandwich-cultured human hepatocytes (SCHH) are more suited due to the presence of metabolizing enzymes and transporters relevant to bile salt disposition. The assay described here relies on changes in the ability of SCHH to produce urea from ammonia in the absence and presence of a (patho-)physiologically relevant bile salt mixture. Ammonia is detoxified in the hepatocyte by the urea cycle to form non-toxic urea. Measuring changes in urea production allows for the quantitative evaluation of the hepatocyte's biochemical and functional integrity. The colorimetric quantitation of urea formation is based on the reaction between urea and diacetylmonoxime.
By determining the ratio of urea formation after incubation with test compound in absence and in presence of the bile salt mixture, the DIC index (DICI) value can be calculated. […] It was previously established that a compound with a SM below 30 can be considered to display increased risk for causing cholestasis in the clinic.
If longer incubations are required (e.g. 48 h), the medium is changed again after 24 h (day 6) with fresh medium containing the same initial concentrations of test compound and bile salts as 24 h before.
• Solution 1: culture medium with no compound and 0.2% DMSO. […] This solution should be filtered through a 0.2 µm filter and prewarmed for 30 min at 37°C. • Solution 4: culture medium with double concentrated test compound. […] This solution should be filtered through a 0.2 µm filter and prewarmed for 30 min at 37°C. • Solution 5: control medium with bile salts, prepared by mixing solution 1 and solution 2 in a 1:1 ratio. • Solution 6: culture medium with positive control without bile salts, prepared by mixing solution 1 and solution 3 in a 1:1 ratio. • Solution 7: culture medium with positive control with bile salts, prepared by mixing solution 2 and solution 3 in a 1:1 ratio. • Solution 8: culture medium with test compound without bile salts, prepared by mixing solution 1 and solution 4 in a 1:1 ratio. • Solution 9: culture medium with test compound with bile salts, prepared by mixing solution 2 and solution 4 in a 1:1 ratio.
• 1. On day 5, aspirate the medium and preincubate the cells with solution 1, solution 6 or solution 8 for 2 h. Note: this preincubation step is performed to enable the compounds to interact with the cellular machinery. • 2. After 2 h, aspirate the medium and immediately incubate the cells with solution 1, solution 5, solution 6, solution 7, solution 8 or solution 9 for 22 h.
The urea assay is performed on day 6 or day 7 for 24 h and 48 h incubations, respectively.
• Solutions for the color reagent. […] Note: perform this procedure on ice as this is an exothermic reaction. Wear appropriate protective gear. • ○ Solution B prepared by mixing the thiosemicarbazide solution and the diacetyl monoxime in a 1:1 ratio. • Incubation buffer: HBSS containing 10 mM HEPES, 2 mM glutamine, 10 mM ammonium chloride and 3 mM ornithine, filtered through a 0.2 µm filter and prewarmed at 37°C. • 96-well thermostable plate with aluminum cover slip.
• 1. Aspirate the culture medium. • 2. Wash the wells twice with 250 µL prewarmed incubation buffer. Aspirate the remaining buffer. • 3. Add 125 µL prewarmed incubation buffer to each well and keep the plate at 37°C for 1 h. • 4.

[2] = tested on: sandwich-cultured human hepatocytes; details: SCHH, ref [6],[7], cited from earlier work; for DICI 24 h Mean: 24 h exposure; for DICI 48 h Mean: 48 h exposure
[3] = set-up: method as in per compound in column References of Table 3 ([3], [24]-[44]); details: mean total peak plasma concentration in humans; ref per compound in Table 3 ([3], [24]-[44]); cited from earlier work

Row | Structure (SMILES) | DICI-based SM obtained with the ‘original’ LOAEL method 24 h [1] | DICI-based SM obtained with the ‘original’ LOAEL method 48 h [1] | DICI 24 h Mean ([2]; 100 µM test compound) | DICI 48 h Mean ([2]; 100 µM test compound) | Cmax,total [3] | DICI 24 h Mean ([2]; 10 µM test compound) | DICI 48 h Mean ([2]; 10 µM test compound) | DICI 24 h Mean ([2]; 50 µM test compound) | DICI 48 h Mean ([2]; 50 µM test compound) | further results
1 | CCC(=O)O[C@@H]1CC(=O)O[C@H](C)C/C=C/C=C/[C@H](O)[C@H](C)C[C@H](CC=O)[C@H](O[C@@H]2O[C@H](C)[C@@H](O[C@H]3C[C@@](C)(O)[C@@H](OC(=O)CC)[C@H](C)O3)[C@H](N(C)C)[C@H]2O)[C@H]1OC [Midecamycin, midecamycin] | 50 | 50 | 0.71 | 1.07 | 2 µM |  |  |  |  | 
2 | CCc1nn(CCCN2CCN(c3cccc(Cl)c3)CC2)c(=O)n1CCOc1ccccc1 [Nefazodone, nefazodone] |  | 7.04 |  |  | 4.26 µM | 0.69 | 1.18 |  |  | DICI 24 h Mean ([2]; 30 µM test compound): 0.77; DICI 48 h Mean ([2]; 30 µM test compound): 0.37; DICI 24 h Mean ([2]; 130 µM test compound): 1.09
3 | CCc1ccc(CCOc2ccc(CC3SC(=O)NC3=O)cc2)nc1 (centres unmarked) [Pioglitazone, pioglitazone] | 101.69 | 101.69 | 1.00 |  | 2.95 µM |  |  | 1.15 |  | DICI 24 h Mean ([2]; 300 µM test compound): 0.94
4 | Cc1ccc(C(=O)c2cc(O)c(O)c([N+](=O)[O-])c2)cc1 [Tolcapone, tolcapone] | 1.05 | 1.05 |  |  | 47.6 µM | 1.05 | 0.89 | 0.91 | 0.79 | DICI 24 h Mean ([2]; 5 µM test compound): 0.98; DICI 48 h Mean ([2]; 5 µM test compound): 1.01
5 | Cc1c(C)c2c(c(C)c1O)CCC(C)(COc1ccc(CC3SC(=O)NC3=O)cc1)O2 (centres unmarked) [Troglitazone, troglitazone] | 15.65 | 15.65 | 0.74 | 0.24 | 6.39 µM |  |  | 1.02 | 1.00 | DICI 24 h Mean ([2]; 20 µM test compound): 0.98; DICI 48 h Mean ([2]; 20 µM test compound): 1.09; DICI 24 h Mean ([2]; 75 µM test compound): 0.78; DICI 48 h Mean ([2]; 75 µM test compound): 0.79
6 | CCOC(=O)CN[C@@H](C(=O)N1CC[C@H]1C(=O)NCc1ccc(/C(N)=N\O)cc1)C1CCCCC1 [Ximelagatran, ximelagatran] | 500 | 500 |  |  | 0.3 µM |  |  | 0.95 | 0.93 | DICI 24 h Mean ([2]; 25 µM test compound): 0.85; DICI 48 h Mean ([2]; 25 µM test compound): 0.95; DICI 24 h Mean ([2]; 150 µM test compound): 1.02; DICI 48 h Mean ([2]; 150 µM test compound): 1.05
